Molecules are shown by their SMILES.

For data set [1] the following is noted: cited from earlier work.
Data set [2] can be described thus: Extraction experiment: partitioning of base from butyraldehyde to equimolar aqueous H3PO3 (Example 5, Table A). In kind it is physicochemical. The method, then: The following series of experiments were performed in order to determine the relationship of the pKa of a base to the effectiveness of the base to remain in the organic phase upon contact with an equimolar aqueous acid solution. In all cases the experiments were performed under nitrogen, unless otherwise specified.
Solutions were prepared by dissolving a quantity of acid or base in solvent so that the final concentration was equal to 0.1 moles/liter. The 1×10^-3 moles/liter solutions were prepared by taking an aliquot of the 0.1 moles/liter solution and diluting to the specified concentration. The 1×10^-5 moles/liter solutions were prepared in the same manner as the 1×10^-3 moles/liter solution with the modification of using an aliquot of the 1×10^-3 moles/liter solution in place of the 0.1 moles/liter solution.
In each extraction experiment, 5 milliliters of base solution in butyraldehyde was added to a clean, dry vial. To this vial was added 5 milliliters of equimolar H3 PO3 solution. The resulting mixture was rapidly shaken for several minutes and then allowed to phase separate. A 1 milliliter aliquot of the aqueous layer was then transferred to a clean, dry vial. To this vial was added 1 milliliter of pH 7 sodium/potassium phosphate buffer and 0.1 milliliter of Tergitol® 15-S-9 surfactant. The solution was shaken vigorously, and an aliquot was analyzed by high performance liquid chromatography for base content. The amount of base was then compared with a dichloromethane solution at the initial concentration. The partition coefficients calculated are for partitioning of the base from the organic phase to the water phase and is defined as K=amount of base in the water phase/amount of base in the organic phase.

A short description of data set [3]: Stability of Ligand F in butyraldehyde solution containing rhodium, by HPLC (Examples 2-4). The format is physicochemical. As to conditions: for concentration of Ligand F remaining: 0.017 grams phosphorous acid added to 12 gram solution, start 0.39; for change in concentration of Ligand F: no added acid or benzimidazole, 200 ppm rhodium, 0.39 wt% Ligand F in butyraldehyde.

Where [4] appears, read: base 1 × 10^-3 moles/liter in butyraldehyde, H3PO3 1 × 10^-3 moles/liter.
Setting [5] is: base 1 × 10^-5 moles/liter in butyraldehyde, H3PO3 1 × 10^-5 moles/liter.

Turning to `O=C1CCCN1Cc1ccccc1` [1-benzyl-2-pyrrolidinone], in data set [1], the pKa of base is reported as -0.7.

As to `c1ccc(Cc2ccccn2)cc1` [2-benzylpyridine], the “K (amount of base in the water phase/amount of base in the organic phase)” value in data set [2] (setting [4]) came to 0.22; in data set [2] (setting [5]), 0.30.

Take `CC(=O)c1cccnc1` [3-acetylpyridine]: the “K (amount of base in the water phase/amount of base in the organic phase)” value in data set [2] (setting [4]) was 0.93; in data set [2] (setting [5]), 0.00. For the same compound, the pKa of base in data set [1] was 3.3.

`CC(C)(C)c1cc(-c2cc(C(C)(C)C)cc(C(C)(C)C)c2Op2oc3ccccc3c3ccccc3o2)c(Op2oc3ccccc3c3ccccc3o2)c(C(C)(C)C)c1` [Ligand F]: the figures for the “concentration of Ligand F remaining” value in data set [3] (24 hours) and in data set [3] (72 hours) were 0.12 percent by weight and 0.04 percent by weight, respectively. For the same compound, the “change in concentration of Ligand F” value in data set [3] (24 hours) and in data set [3] (72 hours) was “No change” each time.

The record behind these values is US5789625A, “Metal-ligand complex catalyzed processes” (priority 1996, dated 1998).
